Among the data in patent US20250163002A1, “FUSED QUINONOXIME IMIDAZOLE, ONIUM DERIVATIVES THEREOF, PREPARATION AND USE THEREOF” (SHANGHAI JIAO TONG UNIVERSITY, priority 2022, published 2025) are IC50 values, retold here.

Molecules are shown by their SMILES.

Common to all, as to type: cell-based
The subject of assay [1] is L929. As to the kind of experiment: In vitro cell proliferation inhibition test (MTT), L929. Particulars: unit inferred.
Assay [2] concerns HeLa. In words: In vitro inhibition test for cancer cell proliferation (MTT), HeLa. The conditions noted are these: 24 h or 48 h after addition, unit inferred.
In assay [3] the test system is MCF-7. As to the kind of experiment: In vitro inhibition test for cancer cell proliferation (MTT), MCF-7. Particulars: unit inferred.
Assay [4] has as its system A549. As to the kind of experiment: In vitro inhibition test for cancer cell proliferation (MTT), A549. The conditions noted are these: unit inferred.
[5] abbreviates: Mus musculus, L929, 24 h or 48 h after addition.
[6] abbreviates: Homo sapiens, MCF7, 24 h or 48 h after addition.
Where [7] appears, read: Homo sapiens, A549, 24 h or 48 h after addition.

In the case of `CCC(C)Cn1c[n+](C)c2c1C(=O)c1ccccc1/C2=N\O` (stereo not shown) [Compound 97, (E)-4-(hydroxylimino)-3-methyl-1-(2-methylbutyl)-9-oxo-4,9-dihydro-1H-naphthol[2,3-d]imidazole-3-iodide], the IC50 in assay [1] (24 h or 48 h after addition) was 74 µM; in assay [2], 1.97 µM; in assay [3] (24 h or 48 h after addition), 1.05 µM; in assay [4] (24 h or 48 h after addition), 1.37 µM.

`Cn1c[n+](C)c2c1C(=O)c1ccccc1C2=NOCc1ccc(F)cc1` [Compound 136, (E) and (Z)-4-(((4-fluorobenzyl)oxy)imino)-1,3-dimethyl-9-oxo-4,9-dihydro-1H-naphthol[2,3-d]imidazole-3-iodide]: the IC50 in assay [1] (24 h or 48 h after addition) was determined as 4.4 µM; in assay [2], 23.9 µM; in assay [3] (24 h or 48 h after addition) it was 29.8 µM; in assay [4] (24 h or 48 h after addition), 0.06 µM.

Take `COc1ccc(-n2c[n+](C)c3c2C(=O)c2ccccc2/C3=N\O)cc1` [Compound 114, (E)-4-(hydroxylimino)-1-(4-methoxyphenyl)-3-methyl-9-oxo-4,9-dihydro-1H-naphthol[2,3-d]imidazole-3-iodide]: the IC50 in assay [1] (24 h or 48 h after addition) is greater than 100 µM; in assay [2] it was 33.8 µM; in assay [3] (24 h or 48 h after addition), 33 µM; in assay [4] (24 h or 48 h after addition), 2.42 µM.

On to `Cn1c[n+](C)c2c1C(=O)c1ccccc1/C2=N\OCCOCc1ccccc1` [Compound 145, (E)-4-((2-(benzyloxy)ethoxy)imino)-1,3-dimethyl-9-oxo-4,9-dihydro-1H-naphthol[2,3-d]imidazole-3-iodide], for which the IC50 in assay [1] (setting [5]) amounted to 45.1 µM; in assay [2] (Homo sapiens, HeLa), 34.2 µM; in assay [3] (setting [6]), 34.8 µM; in assay [4] (setting [7]), 0.04 µM.

With `C[n+]1cn(CC2OCCO2)c2c1/C(=N/O)c1ccccc1C2=O` [Compound 107, (E)-1-((1,3-dioxoheterocycle-2-yl)methyl)-4-(hydroxylimino)-3-methyl-9-oxo-4,9-dihydro-1H-naphthol[2,3-d]imidazole-3-iodide], the IC50 in assay [1] (24 h or 48 h after addition) is greater than 100 µM; in assay [2], greater than 100 µM; in assay [3] (24 h or 48 h after addition), 9.85 µM; in assay [4] (24 h or 48 h after addition), 0.6 µM.

Take `Cn1c[n+](C)c2c1C(=O)c1ccccc1C2=NOC(C)(C)C` [Compound 130, (E) and (Z)-4-(tert-butoxyimino)-1,3-dimethyl-9-oxo-4,9-dihydro-1H-naphthol[2,3-d]imidazole-3-iodide]: the IC50 in assay [1] (24 h or 48 h after addition) was greater than 100 µM; in assay [2], 48.4 µM; in assay [3] (24 h or 48 h after addition) it was 56.2 µM; in assay [4] (24 h or 48 h after addition), 0.6 µM.

`Cn1c[n+](C)c2c1C(=O)c1cc3ccccc3cc1C2=NOCc1ccc([N+](=O)[O-])cc1` [Compound 151, (E) and (Z)-1,3-dimethyl-4-(((4-nitrobenzyl)oxy)imino)-11-oxo-4,11-dihydro-1H-anthracene[2,3-d]imidazole-3-iodide]: the IC50 in assay [1] (24 h or 48 h after addition) was 89.6 µM; in assay [2] it was 56.8 µM; in assay [3] (24 h or 48 h after addition), 78.8 µM; in assay [4] (24 h or 48 h after addition) it was 0.12 µM.

For the compound `Cn1c[n+](C)c2c1C(=O)c1ccccc1C2=NOCc1c(F)c(F)c(F)c(F)c1F` [Compound 137, (E) and (Z)-1,3-dimethyl-9-oxo-4-(((perfluorophenyl)methoxy)imino)-4,9-dihydro-1H-naphthol[2,3-d]imidazole-3-iodide], the IC50 in assay [1] (24 h or 48 h after addition) is 9.7 µM; in assay [2], 15.4 µM; in assay [3] (24 h or 48 h after addition), 24.8 µM; in assay [4] (24 h or 48 h after addition), 0.05 µM.

With `Cn1c[n+](C)c2c1C(=O)c1ccccc1C2=NOCc1ccc([N+](=O)[O-])cc1` [Compound 141, (E) and (Z)-1,3-dimethyl-4-(((4-nitrobenzyl)oxy)imino)-9-oxo-4,9-dihydro-1H-naphthol[2,3-d]imidazole-3-iodide], the IC50 worked out at 23.4 µM in assay [1] (24 h or 48 h after addition), 23.9 µM in assay [2], 45.6 µM in assay [3] (24 h or 48 h after addition) and 0.05 µM in assay [4] (24 h or 48 h after addition).

Take `C[n+]1cn(-c2ccc(F)c(Cl)c2)c2c1/C(=N/O)c1ccccc1C2=O` [Compound 116, (E)-1-(3-chloro-4-fluorophenyl)-4-(hydroxylimino)-3-methyl-9-oxo-4,9-dihydro-1H-naphthol[2,3-d]imidazole-3-iodide]: the IC50 is greater than 100 µM in assay [1] (24 h or 48 h after addition), greater than 100 µM in assay [2], greater than 100 µM in assay [3] (24 h or 48 h after addition) and 2.3 µM in assay [4] (24 h or 48 h after addition).

As for `CC(C)n1c[n+](C)c2c1C(=O)c1ccccc1/C2=N\O` [Compound 95, (E)-4-(hydroxylimino)-1-isopropyl-3-methyl-9-oxo-4,9-dihydro-1H-naphthol[2,3-d]imidazole-3-iodide], the IC50 in assay [1] (24 h or 48 h after addition) came to 26.3 µM; in assay [2] it was 18.3 µM; in assay [3] (24 h or 48 h after addition), 2 µM; in assay [4] (24 h or 48 h after addition) it was 1.89 µM.

As to `C=CCON=C1c2cc3ccccc3cc2C(=O)c2c1[n+](C)cn2C` [Compound 150, (E) and (Z)-4-((allyloxy)imino)-1,3-dimethyl-11-oxo-4,11-dihydro-1H-anthracene[2,3-d]imidazole-3-iodide], the IC50 in assay [1] (24 h or 48 h after addition) worked out at 97.8 µM; in assay [2], 34.4 µM; in assay [3] (24 h or 48 h after addition) it was 45.9 µM; in assay [4] (24 h or 48 h after addition), 0.46 µM.

For the compound `CCCCn1c[n+](C)c2c1C(=O)c1ccccc1C2=NOC` [Compound 119, (E) and (Z)-1-butyl-4-(methoxylimino)-3-methyl-9-oxo-4,9-dihydro-1H-naphthol[2,3-d]imidazole-3-iodide], the IC50 in assay [1] (24 h or 48 h after addition) is 4.6 µM; in assay [2], 33 µM; in assay [3] (24 h or 48 h after addition), 18.1 µM; in assay [4] (24 h or 48 h after addition), 0.52 µM.

Take `Cn1c[n+](C)c2c1C(=O)c1ccccc1C2=NOc1ccccc1` [Compound 142, (E) and (Z)-4-((phenoxy)imino)-1,3-dimethyl-9-oxo-4,9-dihydro-1H-naphthol[2,3-d]imidazole-3-iodide]: the IC50 in assay [1] (24 h or 48 h after addition) stood at 61.3 µM; in assay [2], 34 µM; in assay [3] (24 h or 48 h after addition), 43.5 µM; in assay [4] (24 h or 48 h after addition), 0.06 µM.

`COCCn1c[n+](C)c2c1C(=O)c1ccccc1/C2=N\O` [Compound 100, (E)-4-(hydroxylimino)-1-(2-methoxyethyl)-3-methyl-9-oxo-4,9-dihydro-1H-naphthol[2,3-d]imidazole-3-iodide]: the IC50 came to 6.64 µM in assay [1] (24 h or 48 h after addition), 2.18 µM in assay [2], 0.87 µM in assay [3] (24 h or 48 h after addition) and 0.62 µM in assay [4] (24 h or 48 h after addition).

Turning to `COCCOCCO/N=C1\c2ccccc2C(=O)c2c1[n+](C)cn2C` [Compound 146, (E)-4-((2-(2-methoxyethoxy)ethoxy)imino)-1,3-dimethyl-9-oxo-4,9-dihydro-1H-naphthol[2,3-d]imidazole-3-iodide], the IC50 in assay [1] (setting [5]) stood at 24.6 µM; in assay [2] (Homo sapiens, HeLa), 23 µM; in assay [3] (setting [6]), 32.8 µM; in assay [4] (setting [7]), 0.009 µM.

On to `CC[n+]1cn(C)c2c1C(=NOC)c1ccccc1C2=O` [Compound 126, (E) and (Z)-3-ethyl-4-(methoxylimino)-1-methyl-9-oxo-4,9-dihydro-1H-naphthol[2,3-d]imidazole-3-iodide], for which the IC50 in assay [1] (24 h or 48 h after addition) turned out to be 85.2 µM; in assay [2], 39 µM; in assay [3] (24 h or 48 h after addition), 12.2 µM; in assay [4] (24 h or 48 h after addition), 0.59 µM.

On to `C=CCON=C1c2ccccc2C(=O)c2c1[n+](C)cn2C` [Compound 132, (E) and (Z)-4-((allyloxy)imino)-1,3-dimethyl-9-oxo-4,9-dihydro-1H-naphthol[2,3-d]imidazole-3-iodide], for which the IC50 in assay [1] (24 h or 48 h after addition) was 2.4 µM; in assay [2], 46.3 µM; in assay [3] (24 h or 48 h after addition), 56.1 µM; in assay [4] (24 h or 48 h after addition), 0.06 µM.

On to `CC(C)CON=C1c2ccccc2C(=O)c2c1[n+](C)cn2C` [Compound 129, (E) and (Z)-4-(isobutoxyimino)-1,3-dimethyl-9-oxo-4,9-dihydro-1H-naphthol[2,3-d]imidazole-3-iodide], for which the IC50 came to 26.4 µM in assay [1] (24 h or 48 h after addition), 8.7 µM in assay [2], 12.1 µM in assay [3] (24 h or 48 h after addition) and 0.07 µM in assay [4] (24 h or 48 h after addition).

For `CC(C)Cn1c[n+](C)c2c1C(=O)c1ccccc1/C2=N\O` [Compound 96, (E)-4-(hydroxylimino)-1-isobutyl-3-methyl-9-oxo-4,9-dihydro-1H-naphthol[2,3-d]imidazole-3-iodide], the IC50 in assay [1] (24 h or 48 h after addition) is 57.4 µM; in assay [2] it was 9.7 µM; in assay [3] (24 h or 48 h after addition), 1.26 µM; in assay [4] (24 h or 48 h after addition) it was 2.43 µM.

`C[n+]1cn(Cc2ccc(F)cc2)c2c1/C(=N/O)c1ccccc1C2=O` [Compound 108, (E)-1-(4-fluorobenzyl)-4-(hydroxylimino)-3-methyl-9-oxo-4,9-dihydro-1H-naphthol[2,3-d]imidazole-3-iodide]: the IC50 is greater than 100 µM in assay [1] (24 h or 48 h after addition), 2.38 µM in assay [2], 1.63 µM in assay [3] (24 h or 48 h after addition) and 0.5 µM in assay [4] (24 h or 48 h after addition).

Regarding `CC(C)=CCn1c[n+](C)c2c1C(=O)c1ccccc1/C2=N\O` [Compound 101, (E)-4-(hydroxylimino)-3-methyl-1-(3-methyl-2-ene-1-yl)-9-oxo-4,9-dihydro-1H-naphthol[2,3-d]imidazole-3-iodide], the IC50 worked out at 13.1 µM in assay [1] (24 h or 48 h after addition), 1.8 µM in assay [2], 0.87 µM in assay [3] (24 h or 48 h after addition) and 0.64 µM in assay [4] (24 h or 48 h after addition).

The term IC50 denotes the midpoint of a concentration-inhibition curve. A lower IC50 goes with greater potency in that assay.
